Consider 38 molecules from ChEMBL document CHEMBL1177883, “5D-QSAR for spirocyclic sigma1 receptor ligands by Quasar receptor surface modeling” (Eur J Med Chem, 2010).

The assay concerns the target Sigma non-opioid intracellular receptor 1 (Cavia porcellus, UniProt Q60492). Put plainly: Displacement of [3H](+)-pentazocine from sigma 1 receptor in guinea pig brain membrane. In kind it is cell membranes. (In general: Displacement assays read how much labelled ligand stays bound in the presence of the test substance.)

The structures appear in SMILES notation.

Sigma non-opioid intracellular receptor 1, sequence (Q60492 whole entry): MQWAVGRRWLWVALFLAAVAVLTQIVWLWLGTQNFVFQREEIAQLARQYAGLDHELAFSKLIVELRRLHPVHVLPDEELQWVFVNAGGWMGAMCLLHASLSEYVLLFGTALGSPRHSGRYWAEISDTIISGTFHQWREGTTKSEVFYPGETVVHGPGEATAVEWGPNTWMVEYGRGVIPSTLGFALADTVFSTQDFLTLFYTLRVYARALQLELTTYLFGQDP

One may read the Ki as a measure of affinity in units of concentration, obtained from inhibition or displacement. A high value points to a looser hold on the target. For `CO[C@H]1Cc2ccccc2C2(CCN(C)CC2)O1`, the affinity corresponds to a Ki of 4400 nM.
The figure for `COC(=O)c1cc2c(s1)C[C@H](OC)OC21CCN(Cc2ccccc2)CC1` is 10.9 nM.
With `CCCCN1CCC[C@@]2(C1)O[C@H](OC)Cc1ccccc12` (racemic) the figure was 1290 nM.
The figure for `OCC[C@H]1Cc2ccccc2C2(CCN(Cc3ccccc3)CC2)O1` is 10 nM; for `CC(C)=CCN1CCC2(CC1)OCCc1c2cnn1C` it is 14 nM.
`CO[C@H]1Cc2sccc2C2(CCN(CCCCc3ccccc3)CC2)O1` had a Ki of 7.7 nM.
With `CO[C@@H]1OC2(CCN(Cc3ccccc3)CC2)c2cnn(-c3ccccc3)c21` the figure was 0.49 nM; with `CO[C@H]1CCc2ccccc2C2(CCN(Cc3ccccc3)CC2)O1`, 2.6 nM; with `OCC[C@H]1Cc2ccccc2C2(CCN(CC3CCCCC3)CC2)O1`, 10 nM.
In turn, `O[C@H]1Cc2ccccc2C2(CCN(CCc3ccccc3)CC2)O1` returned a Ki of 44 nM.
With `CCOC(=O)C[C@H]1Cc2ccccc2C2(CCN(Cc3ccccc3)CC2)O1` the figure was 183 nM; with `CCC[C@H]1OC2(CCN(Cc3ccccc3)CC2)c2ccccc21`, 3.2 nM; with `CO[C@H]1Cc2c(cnn2C)C2(CCN(Cc3ccccc3)CC2)O1`, 21 nM.
Take `CO[C@H]1Cc2c(cnn2-c2ccccc2)C2(CCN(Cc3ccccc3)CC2)O1`: the Ki is 1.5 nM.
With `CO[C@H]1Cc2sccc2C2(CCN(CCc3ccccc3)CC2)O1` the figure was 5.9 nM; with `CO[C@H]1Cc2sccc2C2(CCN(Cc3ccccc3)CC2)O1`, 0.32 nM.
Molecule `OCC[C@@H]1Cc2ccccc2C2(CCN(Cc3ccccc3)CC2)O1` returned a Ki of 48 nM.
With `CO[C@H]1Cc2sc(-c3ccccc3)cc2C2(CCN(Cc3ccco3)CC2)O1` the figure was 2.2 nM; with `CO[C@H]1Cc2sc(CN(C)C)cc2C2(CCN(Cc3ccccc3)CC2)O1`, 17 nM.
With `c1ccc(CCCN2CCC3(CC2)OCCc2c3cnn2-c2ccccc2)cc1` the figure was 0.81 nM; with `CO[C@H]1Cc2c(cnn2-c2ccccc2)C2(CCN(CC(C)C)CC2)O1`, 6.3 nM; with `CO[C@H]1Cc2ccccc2C2(CCN(CCCCc3ccccc3)CC2)O1`, 10 nM.
The figure for `CO[C@@H]1Cc2ccccc2[C@@]2(CCCN(Cc3ccccc3)C2)O1` (racemic) is 1720 nM; for `OCC[C@@H]1Cc2ccccc2C2(CCN(CCCc3ccccc3)CC2)O1` it is 68 nM; for `CCCN1CCC2(CC1)O[C@@H](OC)Cc1c2cnn1-c1ccccc1` it is 33 nM.
With `CO[C@H]1Cc2sc(C(=O)c3ccccc3)cc2C2(CCN(Cc3ccccc3)CC2)O1`, the Ki amounted to 3.7 nM.
As for `O[C@H]1OC2(CCN(CCc3ccccc3)CC2)c2ccccc21`, the affinity, expressed as Ki, was 109 nM.
With `CCCN1CCC2(CC1)O[C@@H](OC)Cc1c2cnn1C` the figure was 2980 nM; with `CO[C@H]1Cc2sccc2C2(CCN(CC3CCCCC3)CC2)O1`, 0.3 nM.
The figure for `CO[C@@H]1Cc2ccccc2[C@@]2(CCCN(CCc3ccccc3)C2)O1` (racemic) is 470 nM; for `CC(=O)C[C@H]1Cc2sccc2C2(CCN(Cc3ccccc3)CC2)O1` it is 12 nM; for `OCC[C@@H]1Cc2ccccc2C2(CCN(CC3CCCCC3)CC2)O1` it is 9 nM.
For `OCC[C@H]1Cc2ccccc2C2(CCN(CCCc3ccccc3)CC2)O1`, the Ki is 15 nM.
The figure for `CC(=O)C[C@@H]1Cc2sccc2C2(CCN(Cc3ccccc3)CC2)O1` is 9.4 nM; for `CO[C@H]1Cc2c(cnn2-c2ccccc2)C2(CCN(C(C)C)CC2)O1` it is 210 nM; for `Cn1ncc2c1CCOC21CCN(CCCc2ccccc2)CC1` it is 17 nM.
With `CO[C@H]1Cc2sccc2C2(CCN(CC=C(C)C)CC2)O1` the figure was 1 nM.
The figure for `CCOC(=O)C[C@H]1OC2(CCN(Cc3ccccc3)CC2)c2ccccc21` is 15 nM.
